Measured values as given in PubChem BioAssay (NCI).
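Compound exposure: 48 hours, 5 concentrations, 96-well plates. TGI is the concentration that stops growth completely.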

What was measured:
Experiment in all cases: NCI-60 cell line screen, 48 h
OVCAR-4 ovarian = tested on: OVCAR-4 ovarian
IGROV1 ovarian = tested on: IGROV1 ovarian
SF-268 CNS = tested on: SF-268 CNS
DMS 273 small cell lung = tested on: DMS 273 small cell lung
RXF 393 renal = tested on: RXF 393 renal
HL-60(TB) leukemia = tested on: HL-60(TB) leukemia
DMS 114 small cell lung = tested on: DMS 114 small cell lung
UO-31 renal = tested on: UO-31 renal
MALME-3M melanoma = tested on: MALME-3M melanoma
HCT-15 colon = tested on: HCT-15 colon
NCI-H522 lung = tested on: NCI-H522 lung
SK-MEL-28 melanoma = tested on: SK-MEL-28 melanoma
HT29 colon = tested on: HT29 colon
SN12C renal = tested on: SN12C renal
A498 renal = tested on: A498 renal
TK-10 renal = tested on: TK-10 renal
HOP-62 NSCLC = tested on: HOP-62 NSCLC
XF 498 CNS = tested on: XF 498 CNS
SNB-19 CNS = tested on: SNB-19 CNS
OVCAR-8 ovarian = tested on: OVCAR-8 ovarian
RXF-631 renal = tested on: RXF-631 renal
K-562 leukemia = tested on: K-562 leukemia
SK-MEL-5 melanoma = tested on: SK-MEL-5 melanoma
COLO 205 colon = tested on: COLO 205 colon
786-0 renal = tested on: 786-0 renal
M19-MEL melanoma = tested on: M19-MEL melanoma
SW-620 colon = tested on: SW-620 colon
OVCAR-3 ovarian = tested on: OVCAR-3 ovarian
EKVX NSCLC = tested on: EKVX NSCLC
SK-MEL-2 melanoma = tested on: SK-MEL-2 melanoma
SF-539 CNS = tested on: SF-539 CNS
ACHN renal = tested on: ACHN renal
A549 NSCLC = tested on: A549 NSCLC
CCRF-CEM leukemia = tested on: CCRF-CEM leukemia
MOLT-4 leukemia = tested on: MOLT-4 leukemia
UACC-257 melanoma = tested on: UACC-257 melanoma
OVCAR-5 ovarian = tested on: OVCAR-5 ovarian
HOP-92 NSCLC = tested on: HOP-92 NSCLC
CAKI-1 renal = tested on: CAKI-1 renal
LOX IMVI melanoma = tested on: LOX IMVI melanoma
UACC-62 melanoma = tested on: UACC-62 melanoma
NCI-H226 lung = tested on: NCI-H226 lung
M14 melanoma = tested on: M14 melanoma
U251 CNS = tested on: U251 CNS
NCI-H23 lung = tested on: NCI-H23 lung
KM12 colon = tested on: KM12 colon
KM20L2 colon = tested on: KM20L2 colon
SNB-75 CNS = tested on: SNB-75 CNS
HOP-18 NSCLC = tested on: HOP-18 NSCLC
NCI-H460 lung = tested on: NCI-H460 lung
RPMI-8226 leukemia = tested on: RPMI-8226 leukemia
LXFL 529 NSCLC = tested on: LXFL 529 NSCLC
SF-295 CNS = tested on: SF-295 CNS
SK-OV-3 ovarian = tested on: SK-OV-3 ovarian
SR leukemia = tested on: SR leukemia
SNB-78 CNS = tested on: SNB-78 CNS
HCT-116 colon = tested on: HCT-116 colon
DLD-1 colon = tested on: DLD-1 colon
HCC-2998 colon = tested on: HCC-2998 colon

Measured: TGI

C=CCN(N=O)C(=O)NCCCCC(NC(C)=O)C(=O)NCc1ccccc1 (configuration not stated)
not listed: SR leukemia | SNB-78 CNS | HCT-116 colon | DLD-1 colon | HCC-2998 colon
> 100 µM: all other assays above

COC(=O)C(/C(=N\NC(N)=S)C(=O)Nc1ccccc1[N+](=O)[O-])c1cnc2ccccc2n1 (configuration not stated)
not listed: OVCAR-3 ovarian
> 100 µM: all other assays above
